# Experimental data reported in US7998983B2, “Substituted isoxazoles as fungicides” (Syngenta Limited, priority 2004, dated 2011).
# Key:
# [1] = tested on: leaf rust (Puccinia recondita: PUCCRT); assay: Cereal field trial, leaf rust on wheat; assay type: in vivo; conditions: winter wheat field trial; 9.5% emulsifiable concentrate; 140, 280 and 421 g a.i./ha; low natural incidence
# Method: (§1) A field trial of Compound 4 was conducted on soft red winter wheat cultivar Sisson. Very dry weather gave rise to a low natural incidence of leaf rust (Puccinia recondita: PUCCRT) late in the trial. Compound 4 was applied as a 9.5% active ingredient (weight/weight) emulsifiable concentrate of the following formula (each weight/weight): 9.5% Compound 4, 9.5% m-Pyrol, 65% Surfadone LP-100, 6% Surfadone LP-300, 5% Toximul 3463F, and 5% Toximul 3464F. Rates of Compound 4 application were as follows (grams active ingredient per hectare: g a.i./ha): 140, 280 and 421.
# [2] = tested on: soft red winter wheat cultivar Sisson; assay: Cereal field trial, yield; assay type: in vivo; conditions: highest rate of Compound 4 (421 g a.i./ha)
# Method: as §1
# [3] = tested on: Sclerotinia homoeocarpa (common name: dollar spot); assay: Turf trial, dollar spot on creeping bentgrass; assay type: in vivo; conditions: creeping bentgrass plots; Compound 4 as 25% wetable powder at 2.2, 4.4, 8.8 g a.i. per 1000 square feet; mean disease <3.0% acceptable
# Description: Penncross during the spring.
# [4] = tested on: creeping bentgrass cv. Penncross; assay: Turf trial, turfgrass quality and phytotoxicity; conditions: creeping bentgrass plots inoculated with S. homoeocarpa; ratings >6.0 acceptable
# Method: A fungicide trial was conducted on a 15-yr-old sward of creeping bentgrass cv. Penncross during the spring. The turfgrass was maintained using cultural practices similar to those used in maintenance of bentgrass golf greens in the southern United States. Treatments were arranged as plots (0.5×1.0 m) in a randomized complete block design with four replications. […] All other fungicides were applied according to their labels (Banner MAXX 1.3ME and Insignia 20WG). The turfgrass was inoculated with autoclaved tall fescue seed infested with Sclerotinia homoeocarpa (common name: dollar spot) six hours after application of the initial preventive treatments. The plots received approximately 0.24 inches of irrigation water daily at 1700 hour to ensure nightly foliar wetness for infection. The Horsfall-Barratt rating scale was used to visually estimate disease severity at approximately 7-day intervals from the initial application date. Turfgrass quality was assessed using a 0-9 scale where 0=a necrotic, thin foliar canopy and 9=a dark green, dense foliar canopy. Disease and quality values were subjected to analysis of variance and means were statistically separated using the Scott-Knott cluster analysis procedure.
smiles,measurement,setting,value
"OC(c1cccnc1)c1c(-c2ccc(Cl)cc2Cl)noc1-c1cccc(Cl)c1 (stereo not shown) [Compound 4, 5-(3-Chlorophenyl)-3-(2,4-dichlorophenyl)-4-[(3-pyridyl)hydroxymethyl]-isoxazole]",Control of leaf rust incidence,[1],good control of the rust incidence
same,Yield enhancement,[2],Yield enhancement was observed
same,Dollar spot disease severity / control (Horsfall-Barratt rating),[3],effective control on dollar spot during most of the trial period
same,Turfgrass quality (0-9 scale),[4],Highest quality ratings
